In patent US6691045B1, “Method for determining discrete quantitative structure activity relationships” (Chemical Computing Group Inc., priority 1998, dated 2004):

Key:
[1] = target: T1, Carbonic Anhydrase II receptor (Homo sapiens, UniProt P00918); settings: example initial data set; cited from earlier work
[2] = target: T1, Carbonic Anhydrase II receptor; assay: binding affinity to Carbonic Anhydrase II, from scientific literature; settings: threshold value 5.85
Excerpt: Each compound is given a numerical value indicating its binding affinity. Beside each drawing in Table 1, is a quantitative experimental assessment of binding affinity.
Otherwise, it would be 1.

estrogen receptor = settings: relative binding affinity scale, estradiol = 100; binding at 0 to 4° C.; presumed ER-α; cited from earlier work

SMILES	ACTIVITY (quantitative experimental assessment of binding affinity) [1]	CLASS (activity class, active/inactive) ([2]; structures as SMILES)	CLASS (activity class, active/inactive) ([2]; structures as drawings)	log RBA (estrogen receptor)
CNS(=O)(=O)c1cccc(O)c1	5.92	1 (Otherwise, it would be 1)	1 (Otherwise, it would be 1)	
CC/C(=C(/CC)c1ccc(O)cc1)c1ccc(O)cc1 [DES, desthylstilbestrol]				2.48
CC(=O)Nc1nnc(S(=O)(=O)NC(C)C)s1	5.80	0 (If the activity value is less than 5.85, the activity class is 0)	0 (If the activity value is less than 5.85, the activity class is 0)	
